Source: ChEMBL document CHEMBL6074630, “Discovery of potent LRRK2 inhibitors by ensemble virtual screening strategy and bioactivity evaluation” (Eur J Med Chem, 2024)
Activity calls are given as the source filed them. The calls are words filed in the database; no cut-off is given here.

Tests used:
[1] = biological target: T1, Leucine-rich repeat serine/threonine-protein kinase 2 (Homo sapiens, UniProt Q5S007, G2019S); experiment: Inhibition of LRRK2 G2019S mutant (unknown origin) using LRRKtide as substrate incubated for 60 mins in presence of ATP by ADP-Glo reagent based assay
T1 sequence (Q5S007 whole entry G2019S): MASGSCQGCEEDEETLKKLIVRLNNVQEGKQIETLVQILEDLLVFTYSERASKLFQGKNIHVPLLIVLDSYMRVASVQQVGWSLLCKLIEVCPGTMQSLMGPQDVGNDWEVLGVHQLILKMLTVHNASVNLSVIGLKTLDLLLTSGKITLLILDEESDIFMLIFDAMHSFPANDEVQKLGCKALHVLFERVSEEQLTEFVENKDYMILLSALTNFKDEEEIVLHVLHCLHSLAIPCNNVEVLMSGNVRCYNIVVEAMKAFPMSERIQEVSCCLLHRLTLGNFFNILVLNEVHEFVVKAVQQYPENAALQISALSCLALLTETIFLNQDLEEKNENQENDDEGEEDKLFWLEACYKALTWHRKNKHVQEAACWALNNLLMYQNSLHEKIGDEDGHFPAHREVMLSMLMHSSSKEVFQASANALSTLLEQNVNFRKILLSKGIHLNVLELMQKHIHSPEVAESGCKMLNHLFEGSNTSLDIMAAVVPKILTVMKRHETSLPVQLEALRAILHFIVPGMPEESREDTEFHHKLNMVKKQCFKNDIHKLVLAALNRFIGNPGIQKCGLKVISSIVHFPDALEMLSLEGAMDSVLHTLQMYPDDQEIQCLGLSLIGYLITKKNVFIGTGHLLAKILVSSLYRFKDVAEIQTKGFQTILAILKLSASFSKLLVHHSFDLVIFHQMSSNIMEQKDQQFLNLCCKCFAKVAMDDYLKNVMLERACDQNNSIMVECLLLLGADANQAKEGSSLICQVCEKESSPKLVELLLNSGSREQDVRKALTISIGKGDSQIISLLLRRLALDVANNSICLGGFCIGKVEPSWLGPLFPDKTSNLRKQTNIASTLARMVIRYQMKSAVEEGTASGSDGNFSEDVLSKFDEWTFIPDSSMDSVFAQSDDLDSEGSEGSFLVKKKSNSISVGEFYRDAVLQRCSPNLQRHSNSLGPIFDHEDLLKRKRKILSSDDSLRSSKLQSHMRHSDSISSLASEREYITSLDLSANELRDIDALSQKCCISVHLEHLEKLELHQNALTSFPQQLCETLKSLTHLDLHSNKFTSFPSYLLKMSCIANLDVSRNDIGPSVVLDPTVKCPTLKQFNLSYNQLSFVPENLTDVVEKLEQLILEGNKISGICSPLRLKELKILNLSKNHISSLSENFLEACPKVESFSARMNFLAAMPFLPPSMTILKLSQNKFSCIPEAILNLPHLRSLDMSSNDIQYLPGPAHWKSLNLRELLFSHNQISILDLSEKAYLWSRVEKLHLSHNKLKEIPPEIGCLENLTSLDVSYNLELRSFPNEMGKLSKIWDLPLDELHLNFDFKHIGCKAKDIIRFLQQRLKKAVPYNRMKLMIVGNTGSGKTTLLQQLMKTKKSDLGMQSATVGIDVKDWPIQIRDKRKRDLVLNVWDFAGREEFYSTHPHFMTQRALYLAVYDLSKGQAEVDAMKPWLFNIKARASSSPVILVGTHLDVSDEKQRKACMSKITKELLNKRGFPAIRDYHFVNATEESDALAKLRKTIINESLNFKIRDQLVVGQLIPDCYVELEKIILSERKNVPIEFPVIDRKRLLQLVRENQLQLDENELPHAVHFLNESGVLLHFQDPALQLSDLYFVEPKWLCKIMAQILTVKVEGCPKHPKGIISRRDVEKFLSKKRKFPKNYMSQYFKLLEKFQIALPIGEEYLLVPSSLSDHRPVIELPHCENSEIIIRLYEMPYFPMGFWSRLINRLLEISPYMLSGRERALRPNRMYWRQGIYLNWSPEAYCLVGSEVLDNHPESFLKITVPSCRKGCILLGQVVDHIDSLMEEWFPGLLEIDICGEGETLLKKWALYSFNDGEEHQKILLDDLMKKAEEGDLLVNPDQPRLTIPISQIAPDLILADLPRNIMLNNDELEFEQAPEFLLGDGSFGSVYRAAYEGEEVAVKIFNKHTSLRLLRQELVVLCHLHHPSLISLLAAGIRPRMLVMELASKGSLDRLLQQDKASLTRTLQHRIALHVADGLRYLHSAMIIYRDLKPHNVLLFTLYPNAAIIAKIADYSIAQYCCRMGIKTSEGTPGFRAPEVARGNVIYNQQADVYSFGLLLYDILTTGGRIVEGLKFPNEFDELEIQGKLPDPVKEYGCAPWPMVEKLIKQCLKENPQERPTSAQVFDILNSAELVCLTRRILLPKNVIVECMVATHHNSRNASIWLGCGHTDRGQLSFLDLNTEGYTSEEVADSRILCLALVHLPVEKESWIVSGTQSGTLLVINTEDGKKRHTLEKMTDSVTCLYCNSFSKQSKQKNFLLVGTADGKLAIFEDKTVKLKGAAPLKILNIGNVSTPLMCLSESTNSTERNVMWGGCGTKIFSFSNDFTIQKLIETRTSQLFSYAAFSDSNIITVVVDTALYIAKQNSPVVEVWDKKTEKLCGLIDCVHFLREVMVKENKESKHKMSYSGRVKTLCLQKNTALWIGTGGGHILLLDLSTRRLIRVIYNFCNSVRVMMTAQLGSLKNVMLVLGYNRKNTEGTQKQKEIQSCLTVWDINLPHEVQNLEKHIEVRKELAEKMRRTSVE

[2] = biological target: T1, Leucine-rich repeat serine/threonine-protein kinase 2; experiment: (§1) Inhibition of 3xFlag-Puro-tagged human LRRK2 G2019S mutant phosphorylation at Ser935 residue overexpressed in HEK293T cells incubated for 24 hrs by SDS-PAGE analysis; assay type: cell-based
[3] = biological target: T2, Leucine-rich repeat serine/threonine-protein kinase 2 (Homo sapiens, UniProt Q5S007); experiment: Inhibition of wild type LRRK2 (unknown origin) using LRRKtide as substrate incubated for 60 mins in presence of ATP by ADP-Glo reagent based assay
T2 sequence (Q5S007 whole entry): as the sequence (Q5S007 whole entry G2019S) above, with S2019G counted along it

[4] = Toxicity in wild type Zebrafish AB larvae assessed as effect on survival rate at 12.5 to 100 uM administered from 3 days post fertilization and measured after 96 hrs; design: species or system Danio rerio; conditions: in vivo, dose 12.5-100 µM
[5] = biological target: T2, Leucine-rich repeat serine/threonine-protein kinase 2; experiment: Inhibition of 3xFlag-Puro-tagged wildtype human LRRK2 phosphorylation at Ser935 residue overexpressed in HEK293T cells incubated for 24 hrs by SDS-PAGE analysis; assay type: cell-based
[6] = Toxicity in wild type Zebrafish AB larvae administered from 3 days post fertilization and measured after 96 hrs; design: species or system Danio rerio; conditions: in vivo
[7] = tested on: Leucine-rich repeat serine/threonine-protein kinase 2 (Homo sapiens), Q5S007 [G2019S]; experiment: Inhibition of LRRK2 G2019S mutant (unknown origin) using LRRKtide as substrate at 10 uM incubated for 60 mins in presence of ATP by ADP-Glo reagent based assay relative to control
Leucine-rich repeat serine/threonine-protein kinase 2 (Homo sapiens), Q5S007 [G2019S], sequence (Q5S007 whole entry G2019S): as the sequence (Q5S007 whole entry G2019S) above

[8] = biological target: T2, Leucine-rich repeat serine/threonine-protein kinase 2; experiment: Inhibition of wild type LRRK2 (unknown origin) using LRRKtide as substrate at 10 uM incubated for 60 mins in presence of ATP by ADP-Glo reagent based assay relative to control
[9] = tested on: Leucine-rich repeat serine/threonine-protein kinase 2 (Homo sapiens), Q5S007 [G2019S]; experiment: Inhibition of 3xFlag-Puro-tagged human LRRK2 G2019S mutant phosphorylation at Ser935 residue overexpressed in HEK293T cells at 10 uM incubated for 24 hrs by SDS-PAGE analysis relative to control; assay type: cell-based
[10] = tested on: Leucine-rich repeat serine/threonine-protein kinase 2 (Homo sapiens), Q5S007 [G2019S]; experiment: as §1; assay type: cell-based
[11] = biological target: T2, Leucine-rich repeat serine/threonine-protein kinase 2; experiment: Inhibition of 3xFlag-Puro-tagged wildtype human LRRK2 phosphorylation at Ser935 residue overexpressed in HEK293T cells at 10 uM incubated for 24 hrs by SDS-PAGE analysis relative to control; assay type: cell-based
Danio rerio [12] = organism: Danio rerio; experiment: Neuroprotective activity against 6-OHDA-induced neurotoxicity in wild type Zebrafish AB larvae assessed as increase of total movement distance at 12.5 uM treated with compound from 3 days post fertilization and measured after 4 days; assay type: functional, organism-based; conditions: time 4.0 day
Danio rerio [13] = organism: Danio rerio; experiment: Neuroprotective activity against 6-OHDA-induced neurotoxicity in wild type Zebrafish AB larvae assessed as increase in travel distance at high velocity at 12.5 uM treated with compound from 3 days post fertilization and measured after 4 days; assay type: functional, organism-based; conditions: time 4.0 day
Danio rerio [14] = organism: Danio rerio; experiment: Neuroprotective activity against 6-OHDA-induced neurotoxicity in wild type Zebrafish AB larvae assessed as increase in total swimming distance at 150 uM treated with compound from 3 days post fertilization and measured after 4 days; assay type: functional, organism-based; conditions: time 4.0 day
Danio rerio [15] = organism: Danio rerio; experiment: Neuroprotective activity against 6-OHDA-induced neurotoxicity in wild type Zebrafish AB larvae assessed as improvement in swimming behavior at 150 uM treated with compound from 3 days post fertilization and measured after 4 days; assay type: functional, organism-based; conditions: time 4.0 day
Danio rerio [16] = organism: Danio rerio; experiment: Neuroprotective activity against 6-OHDA-induced neurotoxicity in wild type Zebrafish AB larvae assessed as increase in travel distance at high velocity treated with compound from 3 days post fertilization and measured after 4 days; assay type: functional, organism-based; conditions: dose 12.5-50 µM, time 4.0 day
Danio rerio [17] = organism: Danio rerio; experiment: Neuroprotective activity against 6-OHDA-induced neurotoxicity in wild type Zebrafish AB larvae assessed as increase in travel distance at high velocity at 50 uM treated with compound from 3 days post fertilization and measured after 4 days; assay type: functional, organism-based; conditions: time 4.0 day
Danio rerio [18] = organism: Danio rerio; experiment: Neuroprotective activity against 6-OHDA-induced neurotoxicity in wild type Zebrafish larvae AB assessed as increase in travel distance at high velocity at 12.5 to 50 uM treated with compound from 3 days post fertilization and measured after 4 days; assay type: functional, organism-based; conditions: dose 12.5-50 µM, time 4.0 day

Structure (SMILES) | IC50 [1] [nM] | IC50 [3] [nM] | inhibition [7] [%] | inhibition [8] [%] | inhibition [9] [%] | inhibition [11] [%] | IC50 [2] [nM] | Activity [4] | IC50 [5] [nM] | LC50 at 96 h [6] [nM] | inhibition [10] | inhibition [5] | other results
Cl.c1cc(OCCN2CCCCC2)cc(-c2n[nH]c3ccc(-c4nc[nH]n4)cc23)c1 | 22.4 | 9.6 | – | – | – | – | 49.1 | Toxic | 27.1 | > 100000 | – | – | –
COc1cc(C(=O)N2CCC(N3CCN(C)CC3)CC2)ccc1Nc1ncc2c(n1)N(C)c1ccccc1C(=O)N2C | – | 3.1 | – | – | – | – | 22.1 | Toxic | 17 | > 100000 | Dose-dependent-effect | Dose-dependent-effect | Activity (Danio rerio [12]): Active; Activity (Danio rerio [13]): Active
N[C@@H](Cc1ccc(O)c(O)c1)C(=O)O | – | – | – | – | – | – | – | – | – | – | – | – | Activity (Danio rerio [14]): Active; Activity (Danio rerio [15]): Active
CC[C@](C)(Nc1ccnc(-c2c[nH]c3ncccc23)n1)C(=O)NCC(F)(F)F | 218 | 1340 | > 80 | > 80 | > 60 | > 80 | 337 | Toxic | 1670 | > 100000 | Dose-dependent-effect | Dose-dependent-effect | Activity (Danio rerio [16]): Dose-dependent-effect; Activity (Danio rerio [17]): Active
c1cc(OCCN2CCCCC2)cc(-c2n[nH]c3ccc(-c4nnc[nH]4)cc23)c1 | – | – | > 80 | > 80 | > 60 | > 80 | – | – | – | – | Dose-dependent-effect | Dose-dependent-effect | Activity (Danio rerio [18]): inactive
CNC(=O)c1sc2ccc(NC(=O)c3n[nH]c4ccccc34)cc2c1OC | 2090 | 50300 | > 50 | > 50 | – | – | – | – | – | – | – | – | –

Continued, in another order:

IC50 [1] [nM] | IC50 [3] [nM] | inhibition [7] [%] | inhibition [8] [%] | inhibition [9] [%] | inhibition [11] [%] | Structure (SMILES) | IC50 [2] [nM] | Activity [4] | IC50 [5] [nM] | LC50 at 96 h [6] [nM] | inhibition [10] | inhibition [5] | other results
3630 | 39400 | > 50 | > 50 | – | – | Cn1cccc1-c1cc(C(=O)N/N=C2/C(=O)Nc3ccccc32)[nH]n1 | – | – | – | – | – | – | –
4920 | 3120 | > 50 | > 50 | – | – | Fc1ccc(-c2n[nH]cc2/C=N\Nc2nc3ccccc3[nH]2)cc1 | – | – | – | – | – | – | –
556 | 803 | > 80 | > 80 | > 60 | > 80 | O=C(Nc1n[nH]c2ccccc12)c1cc(-c2cccnc2)n[nH]1 | 605 | – | 1190 | – | Dose-dependent-effect | Dose-dependent-effect | –
5590 | 7150 | > 50 | > 50 | – | – | c1ccc2c(c1)ncn1nc(-c3cc(C4CC4)[nH]n3)nc21 | – | – | – | – | – | – | –
